Marks after values point to notes of the source that are not given here.
Experiments:
[1] = system: carrageenan-induced paw edema; experiment: Carrageenan-induced rat-paw-edema assay; assay type: in vivo, rats; conditions: for Potency (%): calculated compared to the reference drug naproxen; for Edema (%): compounds 5 mg/kg orally, naproxen 2.5 mg/kg orally, in DMSO, mean ± SE of six rats
tail-withdrawal latency = experiment: Tail-flick latency test; assay type: in vivo, rats; conditions: for Latency (seconds) / Latency: compounds 5 mg/kg orally, naproxen 2.5 mg/kg orally, in DMSO, mean ± SE of six rats; for Potency (%): analgesic potency after 120 minutes compared with the reference drug naproxen
gastric ulceration = conditions: naproxen 2.5 mg/kg orally, tested compounds 5 mg/g orally in DMSO
tumor-bearing rats = conditions: cited from earlier work
[2] = after 1 hour of induced inflammation
[3] = throughout the entire experiment

| SMILES | Potency (%) ([1]; 1 hour) | Edema (%) ([1]; 1 hour) | Potency (%) ([1]; 2 hours) | Edema (%) ([1]; 2 hours) | Potency (%) ([1]; 3 hours) | Edema (%) ([1]; 3 hours) | Potency (%) ([1]; 4 hours) | Edema (%) ([1]; 4 hours) | Latency (seconds) (tail-withdrawal latency; 30 minutes) | Latency (seconds) (tail-withdrawal latency; 60 minutes) | Latency (seconds) (tail-withdrawal latency; 120 minutes) | Potency (%) (tail-withdrawal latency) | anti-inflammatory activity (in words) [1, 2] | Latency (tail-withdrawal latency; 30 minutes) [s] | ulcerogenic effect, macroscopic examination of the stomach (gastric ulceration) | reduction of rate of tumor growth (tumor-bearing rats) [%] | anti-inflammatory potency (in words) ([1]; after 2, 3, and 4 hours of induced inflammation, compared to the reference drug) | anti-inflammatory potency relative to the reference drug ([1]; compared to naproxen) | anti-inflammatory activity relative to naproxen ([1]; entire experiment, after 4 hours) [times] | anti-inflammatory activity (in words) [1, 3] |
| --- | --- | --- | --- | --- | --- | --- | --- | --- | --- | --- | --- | --- | --- | --- | --- | --- | --- | --- | --- | --- |
| COC(=O)CCNC(=S)NC(=O)C(C)c1ccc2cc(OC)ccc2c1 (centres unmarked) [Compound 10, Methyl 3-(3-(2-(6-methoxynaphthalen-2-yl)propanoyl)thioureido)propanoate] | 6.3 | 30.7±2.38 | 9.8 | 42.6±2.45 | 10.4 | 46.4±2.61 | 15.9 | 44.9±3.34 | 3.1±0.3^b seconds | 4.6±0.4^b seconds | 5.7±0.2^a,b seconds | 81.4 | – | – | – | – | – | – | – | – |
| COc1ccc2cc(C(C)C(=O)NC(=S)NCCC(=O)O)ccc2c1 (centres unmarked) [Compound 6, 3-(3-(2-(6-methoxynaphthalen-2-yl)propanoyl)thioureido)propanoic acid] | 67.6 | 24.6±2.39 | 60.0 | 31.4±2.46 | 64.4 | 35.1±2.99 | 60.3 | 35.3±3.06 | – | 4.0±0.2^b seconds | 4.2±0.3^b seconds | 60.0 | moderate potency | 4.6 ± 0.3 | – | – | – | – | – | – |
| COc1ccc2cc([C@H](C)C(=O)O)ccc2c1 [Naproxen, reference compound] | 100 | 21.5±2.03 | 100 | 22.5±1.22 | 100 | 27.6±0.85 | 100 | 26.7±1.90 | 5.3±0.3^a seconds | 6.2±0.4^a seconds | 7.0±0.4^a seconds | 100 | – | – | moderate gastric ulceration | 58 | – | – | – | – |
| COc1ccc2cc(C(C)C(=O)NC(=S)NC(CO)C(=O)O)ccc2c1 (centres unmarked) [Compound 7, 3-hydroxy-2-(3-(2-(6-methoxynaphthalen-2-yl)propanoyl)thioureido)propanoic acid] | 73.9 | 24.0±1.90 | 73.3 | 28.4±0.78 | 89.8 | 29.7±0.95 | 85.2 | 30.0±0.95 | 3.9±0.4^b seconds | 3.6±0.3^b seconds | 4.1±0.2^b seconds | 58.6 | moderate potency | – | – | – | – | – | – | – |
| COc1ccc2cc(C(C)C(=O)NC(=S)NC(C)C(=O)O)ccc2c1 (centres unmarked) [Compound 5, 2-(3-(2-(6-methoxynaphthalen-2-yl)propanoyl)thioureido)propanoic acid] | 102.5 | 21.2±1.66 | 64.6 | 30.4±1.19 | 71.1 | 33.7±1.68 | 71.7 | 32.8±1.40 | 3.9±0.3^b seconds | 3.9±0.4^b seconds | 3.9±0.2^b seconds | 55.7 | highest anti-inflammatory activity | – | – | – | – | – | – | – |
| COC(=O)C(CO)NC(=S)NC(=O)C(C)c1ccc2cc(OC)ccc2c1 (centres unmarked) [Compound 11, Methyl 3-hydroxy-2-(3-(2-(6-methoxynaphthalen-2-yl)propanoyl)thioureido)propanoate] | 66.7 | 24.7±1.79 | 62.2 | 30.9±2.05 | 32.5 | 41.8±2.81 | 32.1 | 41.4±2.59 | 4.8±0.5^a seconds | 4.8±0.4^b seconds | 4.8±0.2^a,b seconds | 68.6 | moderate potency | – | – | – | – | – | – | – |
| COc1ccc2cc(C(C)C(=O)NC(=S)NC(CO)C(=O)NN)ccc2c1 (centres unmarked) [Compound 15, N-(1-hydrazinyl-3-hydroxy–1-oxopropan-2-yl-carbamothioyl)-2-(6-methoxynaphthalen-2-yl)propanamide] | 120.0 | 19.5±0.50 | 96.8 | 23.2±2.05 | 88.2 | 30.1±2.58 | 80.5 | 31.0±1.68 | – | 3.9±0.2^b seconds | 4.5±0.3^b seconds | 64.3 | highest anti-inflammatory activity | 4.2 ± 0.4 | – | – | moderate potency | – | – | – |
| COC(=O)C(C)NC(=S)NC(=O)C(C)c1ccc2cc(OC)ccc2c1 (centres unmarked) [Compound 9, Methyl 2-(3-(2-(6-methoxynaphthalen-2-yl)propanoyl)thioureido)propanoate] | 4.7 | 30.8±1.09 | 11.6 | 42.2±3.50 | 21.1 | 44.2±3.94 | 32.3 | 41.3±2.99 | 3.7±0.2^b seconds | 3.8±0.3^b seconds | 4.0±0.3^b seconds | 57.1 | – | – | – | – | – | – | – | – |
| COc1ccc2cc(C(C)C(=O)NC(=S)NC(Cc3ccc(O)cc3)C(=O)O)ccc2c1 (centres unmarked) [Compound 8, 3-(4-hydroxyphenyl)-2-(3-(2-(6-methoxynaphthalen-2-yl)propanoyl)thioureido)propanoic acid] | 138.4 | 17.6±1.55 | 111.4 | 19.9±1.50 | 129.2 | 21.5±1.42 | 131.2 | 20.0±2.02 | 5.0±0.2^a seconds | 4.9±0.3^a,b seconds | 5.9±0.5^a seconds | 84.3 | highest anti-inflammatory activity | – | – | – | – | about 1.4 times | 1.3 | highest anti-inflammatory activity |
| COc1ccc2cc(C(C)C(=O)NC(=S)NCCC(=O)NN)ccc2c1 (centres unmarked) [Compound 14, N-(3-hydrazinyl-3-oxopropylcarbamothioyl)-2-(6-methoxynaphthalen-2-yl)propanamide] | 40.3 | 27.3±0.88 | 32.9 | 37.4±3.58 | 44.9 | 39.2±2.42 | 26.5 | 42.6±1.61 | 6.1±0.4^a seconds | 5.6±0.2^a seconds | 5.7±0.3^a,b seconds | 81.4 | – | 6.1 ± 0.4 | – | – | – | – | – | lowest anti-inflammatory potency |

— publication PMC6540076 (Drug Design, Development and Therapy, 2019)
